Activity calls are given as the source filed them. No cut-off for these calls is given here.
Columns and labels:
[1] = biological target: Amyloid-beta precursor protein (Homo sapiens) (UniProt P05067); experiment: Inhibition of HFIP-pretreated amyloid beta (1 to 42) (unknown origin) self-induced aggregation at 20 uM incubated for 24 hrs under dark condition by thioflavin-T based fluorometric assay relative to control
SH-SY5Y [2] = experiment: Neuroprotective activity against H2O2-induced cell death in human SH-SY5Y cells assessed as increase in cell viability at 100 uM pretreated for 12 hrs followed by H2O2 challenge measured after 3 hrs by MTT assay; type: functional, cell-based
SH-SY5Y [3] = experiment: Neuroprotective activity against H2O2-induced morphological changes in human SH-SY5Y cells assessed as reduction in cell shrinkage at 100 uM by phase contrast microscopic analysis; type: functional, cell-based
SH-SY5Y [4] = experiment: Neuroprotective activity against H2O2-induced morphological changes in human SH-SY5Y cells assessed as reduction in appearance of apoptotic bodies at 100 uM by phase contrast microscopic analysis; type: functional, cell-based

Chain of Amyloid-beta precursor protein (Homo sapiens) (P05067 whole entry): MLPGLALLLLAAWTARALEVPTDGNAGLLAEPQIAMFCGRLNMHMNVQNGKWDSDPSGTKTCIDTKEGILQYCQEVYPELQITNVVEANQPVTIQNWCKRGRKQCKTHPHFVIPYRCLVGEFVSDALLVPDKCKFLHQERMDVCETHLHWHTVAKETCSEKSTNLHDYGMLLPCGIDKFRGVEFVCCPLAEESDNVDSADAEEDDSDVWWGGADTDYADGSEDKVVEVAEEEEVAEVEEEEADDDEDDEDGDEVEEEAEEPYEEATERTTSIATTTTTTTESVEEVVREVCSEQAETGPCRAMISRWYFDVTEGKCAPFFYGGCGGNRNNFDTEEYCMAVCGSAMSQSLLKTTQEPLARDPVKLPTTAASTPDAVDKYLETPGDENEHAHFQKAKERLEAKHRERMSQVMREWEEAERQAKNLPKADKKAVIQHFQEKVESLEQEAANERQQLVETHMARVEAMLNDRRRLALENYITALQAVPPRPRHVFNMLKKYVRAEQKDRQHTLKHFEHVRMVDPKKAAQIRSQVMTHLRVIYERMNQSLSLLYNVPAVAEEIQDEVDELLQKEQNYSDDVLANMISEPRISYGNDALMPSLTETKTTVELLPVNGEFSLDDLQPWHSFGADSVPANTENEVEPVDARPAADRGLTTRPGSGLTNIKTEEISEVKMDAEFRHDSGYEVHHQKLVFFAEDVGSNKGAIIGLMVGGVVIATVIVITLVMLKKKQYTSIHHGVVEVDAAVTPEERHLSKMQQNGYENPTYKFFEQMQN

Structure (SMILES)	inhibition [1]	Activity (SH-SY5Y [2])	Activity (SH-SY5Y [3])	Activity (SH-SY5Y [4])
O=C(O[C@@H]1Cc2c(O)cc(O)cc2O[C@@H]1c1cc(O)c(O)c(O)c1)c1cc(O)c(O)c(O)c1	86.1%			
O=C(Oc1cc(O)c2c(c1)O[C@H](c1cc(O)c(OC(=O)c3cc(O)c(O)c(O)c3)c(O)c1)[C@@H](O)C2)c1cc(O)c(O)c(O)c1	56.3%	Active		
O=C(Oc1cc(O)c2c(c1)O[C@H](c1cc(O)c(O)c(O)c1)[C@@H](O)C2)c1cc(O)c(O)c(O)c1	Active	Active		
C[C@H]1O[C@H](Oc2c(-c3ccc(O)c(O)c3)oc3cc(O)cc(O)c3c2=O)[C@@H](O)[C@@H](O)[C@@H]1O	70.7%			
O=c1c(O)c(-c2ccc(O)c(O)c2)oc2cc(O)cc(O)c12	88.4%	Active		
COc1cc(-c2cc(=O)c3c(OC)cc(O)cc3o2)ccc1O	Active			
COc1cc(OC)c2c(c1)O[C@H](c1cc(O)c(O)c(OC)c1)[C@@H](O)C2	Active			
COc1cc(O)c(C[C@H](O)Cc2ccc(O)c(OC)c2)c(OC)c1	Active			
C[C@@H]1O[C@@H](Oc2c(-c3cc(O)c(O)c(O)c3)oc3cc(O)cc(O)c3c2=O)[C@H](O)[C@H](O)[C@H]1O	62.2%			
O=C(Oc1cc(O)c2c(c1)O[C@@H](c1cc(O)c(O)c(O)c1)CC2)c1cc(O)c(O)c(O)c1	Active	Active		
C[C@@H]1Oc2cccc(O)c2C(=O)[C@@H]1O	Active			
O=C(Oc1cc(O)c2c(c1)O[C@H](c1ccc(O)c(O)c1)[C@@H](O)C2)c1cc(O)c(O)c(O)c1	Active	Active		
COc1cc(O)cc2oc(-c3ccc(O)cc3)cc(=O)c12	Active			
Oc1cc([C@@H]2CCc3c(O)cccc3O2)cc(O)c1O	59.6%			
O=c1cc(-c2ccc(O)c(O)c2)oc2cc(O)cc(O)c12	86.5%	Active		
O=C1c2ccc(O)c(O)c2O[C@H](c2ccc(O)c(O)c2)[C@H]1O	87.7%	Active	Active	Active

Source: ChEMBL document CHEMBL4177596, “Flavonoids and their derivatives with β-amyloid aggregation inhibitory activity from the leaves and twigs of Pithecellobium clypearia Benth” (Bioorg Med Chem Lett, 2017)
